# Results published in patent US20250129119A1, “PEPTIDE HAVING ANTI-INFLAMMATORY ACTIVITY AND USE THEREOF” (CAREGEN CO., LTD., priority 2021, published 2025).
# What was measured:
# Assay type in all cases: cell-based
# [1] = test system: iNOS and pJNK in human keratinocytes HaCaT; assay: Western blot of iNOS and pJNK in HaCaT keratinocytes stimulated with TNF-α and hIL-17A; details: peptide 5 μM and 50 μM, TNF-α 10 nM and hIL-17A 200 ng/mL, 24 hours, FIG. 7
# Method: In order to confirm the effect of the peptides of the present invention synthesized in Synthesis Example 1 on Th17-mediated inflammatory responses, the degree of phosphorylation of iNOS and pJNK, which are inflammation-inducing factors and signaling proteins, was measured by Western blot.
# (§1) Specifically, the number of human keratinocytes HaCaT (CLS Cell Lines Service)) was measured, and the cells were inoculated into a 24-well plate at a density of 1×10^7 cells/well, and cultured overnight. Next day, the medium was replaced with serum-free medium and the cells were cultured for 4 hours, and then treated with the peptide of the present invention (5 μM and 50 μM) and TNF-α (10 nM) and hIL-17A (200 ng/mL), which are Th17 type inflammation-inducing cytokines, as a stimulant, and cultured for 24 additional hours.
# After cultivation, the cells were recovered to prepare a cell lysate, and a western blot was performed using antibodies against iNOS and pJNK (Cell Signaling Technology, USA) to confirm the patterns of protein expression.
# [2] = test system: secretion of INFγ induced by LPS, TGF-β, and IL-23 in splenocytes; assay: ELISA of INFγ secretion in splenocytes stimulated with LPS, TGF-β and IL-23; details: mouse splenocytes; peptide 5 μM and 50 μM; LPS 2 μg/mL, TGF-β 20 ng/mL, IL-23 20 ng/mL; 24 hours; FIG. 4
# Method: In order to confirm the effect of the peptides of the present invention synthesized in Synthesis Example 1 on the inflammatory response induced by LPS, TGF-β, and IL-23, the secretion amount of INFγ, which is an inflammatory cytokine, was measured by ELISA.
# (§2) Specifically, 6-7 week old mice (C57BL/6, Young Bio Co., Ltd.) were sacrificed to obtain spleens, which were crushed using a cell strainer, and then centrifuged with serum-free RPMI-1640 medium. The supernatant was discarded and red blood cells (RBCs) were removed twice using RBC lysis buffer. Then, after washing the resultant with serum-free RPMI-1640 medium, an appropriate amount of serum-free RPMI-1640 medium was added thereto. The number of mouse splenocytes was measured, and the cells were inoculated into a 24-well plate at a density of 1×10^7 cells/well, and cultured overnight. […]
# Next, the cell culture was recovered after cultivation, and the amount of secretion of INFγ, which is an inflammatory cytokine, was measured using an ELISA kit (Quantikine ELISA Kit, R&D System, USA) specific to INFγ, and the absorbance was measured using Spectramax M2 (Molecular Devices).
# [3] = test system: secretion of IL-17 induced by TNF-α and IL-17A in splenocytes; assay: ELISA of IL-17 secretion in splenocytes stimulated with TNF-α and IL-17A; details: mouse splenocytes; peptide 5 μM and 50 μM; TNF-α 20 nM and IL-17A 200 ng/mL; 24 hours; FIG. 5
# Method: In order to confirm the effect of the peptides of the present invention synthesized in Synthesis Example 1 on the inflammatory response induced by TNF-α and IL-17A, the secretion amount of IL-17, which is an inflammatory cytokine, was measured by ELISA.
# as §2, with “mice” for “mice (C57BL/6, Young Bio Co., Ltd.)”
# Next, the cell culture was recovered after cultivation, and the amount of secretion of IL-17, which is an inflammatory cytokine, was measured using an ELISA kit (Quantikine ELISA Kit, R&D System, USA) specific to […], and the absorbance was measured using Spectramax M2 (Molecular Devices).
# [4] = test system: COX2 and INFγ mRNA expression induced by LPS in splenocytes; assay: RT-PCR of inflammatory gene mRNA in LPS-stimulated splenocytes; details: mouse splenocytes; peptide 5 μM and 50 μM; LPS 2 μg/mL; 3 hours; FIG. 1
# Method: In order to confirm the effect of the peptides of the present invention synthesized in Synthesis Example 1 on the inflammatory response induced by LPS, the expression levels of mRNA of inflammatory cytokines COX2 and INFγ were measured by RT-PCR.
# (§3) Specifically, 6-7 week old mice (C57BL/6, Young Bio Co., Ltd.) were sacrificed to obtain spleens, which were crushed using a cell strainer, and then centrifuged along with serum-free RPMI-1640 medium. The supernatant was discarded and red blood cells (RBCs) were removed twice using RBC lysis buffer. Then, after washing the resultant with serum-free RPMI-1640 medium, an appropriate amount of serum-free RPMI-1640 medium was added. The number of mouse splenocytes was measured, and the cells were inoculated into a 24-well plate at a density of 1×10^7 cells/well, and cultured overnight. Next day, the medium was replaced with serum-free medium and the cells were cultured for 4 hours, and then treated with the peptide of the present invention (5 μM and 50 μM) and LPS (2 μg/mL), which is an inflammation-inducing substance, as a stimulant, and cultured for 3 additional hours.
# Next, cells were recovered after culture, and total RNA was extracted using an RNA extraction kit (Qiagen RNeasy kit), and after RNA quantification, cDNA was synthesized using a cDNA synthesis kit (Intron, Korea). […]
# [5] = test system: secretion of TNF-α, IL-1β and INFγ induced by TNF-α in splenocytes; assay: ELISA of cytokine secretion in TNF-α-stimulated splenocytes; details: mouse splenocytes, peptide 5 μM and 50 μM, TNF-α 20 nM, 24 hours
# Method: In order to confirm the effect of the peptides of the present invention synthesized in Synthesis Example 1 on the inflammatory response induced by TNF-α, the secretion amounts of TNF-α, IL-1β, and INFγ, which are inflammatory cytokines, were measured by ELISA.
# as §3, with “centrifuged” for “centrifuged along”, “added thereto.” for “added.”, “TNF-α (20 nM),” for “LPS (2 μg/mL),”, “24” for “3”
# Next, the cell culture was recovered after cultivation, and the amounts of secretion of TNF-α, IL-1β, and INFγ, which are inflammatory cytokines, were measured using an ELISA kit (Quantikine ELISA Kit, R&D System, USA) specific to TNF-α, IL-1β, and INFγ, and the absorbance was measured using Spectramax M2 (Molecular Devices).
# [6] = test system: TNF-α, COX2, IL-6 and IL-8 mRNA expression in human keratinocytes HaCaT; assay: RT-PCR of inflammatory gene mRNA in HaCaT keratinocytes stimulated with TNF-α and hIL-17A; details: peptide 5 μM and 50 μM, TNF-α 10 nM and hIL-17A 200 ng/mL, one hour, FIG. 6
# Method: In order to confirm the effect of the peptides of the present invention synthesized in Synthesis Example 1 on Th17-mediated inflammatory responses, the mRNA expression levels of TNF-α, COX2, IL-6, and IL-8 were measured by RT-PCR.
# as §1, with “of 3×10^5” for “of 1×10^7”, “cytokines, used” for “cytokines,”, “for one” for “for 24”, “additional hour.” for “additional hours.”
# Next, cells were recovered after culture, and total RNA was extracted using an RNA extraction kit (Qiagen RNeasy kit), and after RNA quantification, cDNA was synthesized using a cDNA synthesis kit (Intron, Korea). A polymerase chain reaction (PCR) was performed by mixing a PCR premix (Intron, Korea), synthesized cDNA, and primers shown in [Table 3] below specific for each of the genes of TNF-α, COX2, IL-6, IL-8, and GAPDH. PCR products were electrophoresed on a 5% agarose gel and stained with ethidium bromide to confirm the mRNA expression levels of TNF-α, COX2, IL-6, and IL-8, which are genes associated with inflammation and autoimmune diseases.
# [7] = test system: secretion of TNF-α, IFN-γ and IL-17 induced by LPS in splenocytes; assay: ELISA of cytokine secretion in LPS-stimulated splenocytes; details: mouse splenocytes, peptide 5 μM and 50 μM, LPS 2 μg/mL, 24 hours
# Method: In order to confirm the effect of the peptides of the present invention synthesized in Synthesis Example 1 on the inflammatory response induced by LPS, the secretion amounts of inflammatory cytokines TNF-α, IL-17, and INFγ were measured by ELISA.
# as §3, with “centrifuged” for “centrifuged along”, “added thereto.” for “added.”, “24” for “3”
# Next, the cell culture was recovered after cultivation, and the amounts of secretion of IL-17, IFN-γ, and TNF-α, which are secretion markers during Th17 differentiation, were measured using an ELISA kit (Quantikine ELISA Kit, R&D System, USA) specific to IL-17, IFN-γ, and TNF-α, and the absorbance was measured using Spectramax M2 (Molecular Devices).
sequence,measurement,setting,value
SVSVGMKPSPRP [peptide of the present invention],iNOS protein expression (Western blot),[1],reduce
same,phosphorylation of JNK (Western blot),[1],reduce
same,secretion of INFγ (ELISA),[2],significantly reduce
same,secretion of IL-17 (ELISA),[3],significantly reduce
same,mRNA expression of COX2 (RT-PCR),[4],significantly reduce
same,mRNA expression of INFγ (RT-PCR),[4],significantly reduce
same,secretion of TNF-α (ELISA),[5]; FIG. 3A,significantly reduce
same,secretion of IL-1β (ELISA),[5]; FIG. 3B,significantly reduce
same,secretion of INFγ (ELISA),[5]; FIG. 3C,significantly reduce
same,mRNA expression of COX2 (RT-PCR),[6],significantly reduce
same,mRNA expression of IL-6 (RT-PCR),[6],significantly reduce
same,mRNA expression of IL-8 (RT-PCR),[6],significantly reduce
same,mRNA expression of TNF-α (RT-PCR),[6],significantly reduce
same,secretion of TNF-α (ELISA),[7]; FIG. 2A,significantly reduce
same,secretion of IFN-γ (ELISA),[7]; FIG. 2B,significantly reduce
same,secretion of IL-17 (ELISA),[7]; FIG. 2C,significantly reduce
